Source: paper PMC5517430, “2,3,7,8-Tetrachlorodibenzo-p-dioxin (TCDD)-elicited effects on bile acid homeostasis: Alterations in biosynthesis, enterohepatic circulation, and microbial metabolism” (Scientific Reports, 2017)

Test system: intestine of male C57BL/6 mice
Assay: Sugar probe intestinal para-cellular permeability (UPLC-MS/MS of urine)
Assay type: in vivo, mouse
Settings: 30 µg/kg TCDD every 4 d, 26 d after initial dose
Description: At 26d after the initial dose (PND54), mice were fasted for 4 h (without access to food or water) prior to oral gavage with 150 µL of a solution containing 100 mg sucrose, 12 mg lactulose, 8 mg mannitol, and 6 mg sucralose. Urine from each mouse was collected over a 5 h period, flash frozen, and combined prior to analysis. Urine was diluted in 95% acetonitrile/5% water: 100-fold for mannitol detection, 200-fold for sucrose and lactulose detection, and 500-fold for sucralose detection. Sugar probe recovery was measured using ultra high performance liquid chromatography-tandem mass spectrometry (UPLC-MS/MS), performed at the MSU RTSF Mass Spectrometry and Metabolomics Core (https://rtsf.natsci.msu.edu/mass-spectrometry/). Diluted urine samples were injected onto an Acquity UPLC BEH Amide column (1.7 µm, 2.1 × 100 mm) (Waters, Milford, MA) maintained at 50 °C on a Waters ACQUITY UPLC systems (Waters). Mobile phase A was 50 mM ammonium acetate buffer (pH = 9.6) and mobile phase B was acetonitrile. […]
Data analysis including peak integration was performed using MAVEN[75]. […] Fractional excretion of each probe was calculated using: (probe concentration from MS X total urine volume excreted)/probe input. […]

With `Clc1cc2c(cc1Cl)Oc1cc(Cl)c(Cl)cc1O2` [TCDD, 2,3,7,8-tetrachlorodibenzo-p-dioxin] as the molecule, how does the “Permeability of the small intestine (lactulose-to-mannitol ratio)” value read?
Its value is “unaffected”.
